Data published in ChEMBL document CHEMBL3045514, “An efficient one-pot cyclization of quinoline thiosemicarbazones to quinolines derivatized with 1,3,4-thiadiazole as anticancer and anti-tubercular agents” (Med Chem Res, 2012).
In brackets after ≈: the same amount, converted by molar mass. Activity calls are given as the source filed them. No cut-off for these calls is given here.

What was measured:
[1] = system: Mycobacterium tuberculosis; test: Antitubercular activity against Mycobacterium tuberculosis H37Rv measured twice a week for 3 weeks by Ziehl-Neelsen staining; format: functional; conditions: 504 h
[2] = system: Mycobacterium tuberculosis; test: Antitubercular activity against Mycobacterium tuberculosis H37Rv at 25 ug/ml measured twice a week for 3 weeks by Ziehl-Neelsen staining; format: functional, organism-based
HeLa = test: Cytotoxicity against Homo sapiens (human) HeLa cells assessed as cell mortality after 24 to 72 hr by inverted microscopic analysis; format: functional
Mus musculus = species on record: Mus musculus; test: Toxicity in Mus musculus (mouse) assessed as irritation; format: organism-based; conditions: in vivo
[3] = system: Mycobacterium tuberculosis; test: Antitubercular activity against Mycobacterium tuberculosis H37Rv at 10 ug/ml measured twice a week for 3 weeks by Ziehl-Neelsen staining; format: functional, organism-based
[4] = system: Mycobacterium tuberculosis; test: Antitubercular activity against Mycobacterium tuberculosis H37Rv at 5 ug/ml measured twice a week for 3 weeks by Ziehl-Neelsen staining; format: functional, organism-based

CN[C@@H]1[C@H](O[C@H]2[C@H](O[C@H]3[C@H](O)[C@@H](O)[C@H](N=C(N)N)[C@@H](O)[C@@H]3N=C(N)N)O[C@@H](C)[C@]2(O)C=O)O[C@@H](CO)[C@H](O)[C@H]1O [STREPTOMYCIN]
MIC [1]: 10 µg/mL (≈ 17.2 µM)

CC(=O)NC1=NN(C(C)=O)C(c2cc3ccccc3nc2Cl)S1 (stereo not drawn)
Activity [2]: Active | Activity (HeLa): 15 µg/mL | Activity (Mus musculus): Non-toxic | Activity [3]: Active | Activity [4]: inactive

CC(=O)NC1=NN(C(C)=O)C(c2cc3cccc(C)c3nc2Cl)S1 (stereo not drawn)
MIC [1]: 5 µg/mL (≈ 13.8 µM) | Activity [2]: Active | Activity (HeLa): 25 µg/mL | Activity (Mus musculus): Non-toxic | Activity [3]: Active | Activity [4]: inactive

CC(=O)NC1=NN(C(C)=O)C(c2cc3cc(Br)ccc3nc2Cl)S1 (stereo not drawn)
Activity [2]: Active | Activity (HeLa): 20 µg/mL | Activity (Mus musculus): Non-toxic | Activity [3]: Active | Activity [4]: inactive

COc1cccc2cc(C3SC(NC(C)=O)=NN3C(C)=O)c(Cl)nc12 (stereo not drawn)
MIC [1]: 5 µg/mL (≈ 13.2 µM) | Activity [2]: Active | Activity (HeLa): 15 µg/mL | Activity (Mus musculus): Non-toxic | Activity [3]: Active | Activity [4]: inactive

COc1cc2cc(C3SC(NC(C)=O)=NN3C(C)=O)c(Cl)nc2cc1OC (stereo not drawn)
Activity [2]: Active | Activity (HeLa): 10 µg/mL | Activity (Mus musculus): Non-toxic | Activity [3]: Active | Activity [4]: inactive

CC(=O)NC1=NN(C(C)=O)C(c2cc3ccc(C)cc3nc2Cl)S1 (stereo not drawn)
Activity [2]: Active | Activity (HeLa): 20 µg/mL | Activity (Mus musculus): Non-toxic | Activity [3]: Active | Activity [4]: inactive

COc1ccc2nc(Cl)c(C3SC(NC(C)=O)=NN3C(C)=O)cc2c1 (stereo not drawn)
Activity [2]: Active | Activity (HeLa): 10 µg/mL | Activity (Mus musculus): Non-toxic | Activity [3]: Active | Activity [4]: inactive

CC(=O)NC1=NN(C(C)=O)C(c2cc3ccc(Cl)cc3nc2Cl)S1 (stereo not drawn)
Activity [2]: Active | Activity (HeLa): 20 µg/mL | Activity (Mus musculus): Non-toxic | Activity [3]: Active | Activity [4]: inactive

COc1ccc2cc(C3SC(NC(C)=O)=NN3C(C)=O)c(Cl)nc2c1 (stereo not drawn)
Activity [2]: Active | Activity (HeLa): 15 µg/mL | Activity (Mus musculus): Non-toxic | Activity [3]: Active | Activity [4]: inactive

CC(=O)NC1=NN(C(C)=O)C(c2cc3cc(C)ccc3nc2Cl)S1 (stereo not drawn)
Activity [2]: Active | Activity (HeLa): 10 µg/mL | Activity (Mus musculus): Non-toxic | Activity [3]: Active | Activity [4]: inactive
